Assay results: patent publication US8168651B2, “Protein kinase modulators” (Cylene Pharmaceuticals, Inc., priority 2008, dated 2012)

Columns and labels:
[1] = biological target: recombinant human CK2 (Homo sapiens (Human), UniProt P68400); test: CK2 assay (cell-free, 33P-ATP filter plate); type: biochemical; conditions: 500 nM compound, cell-free assay; read-out: CK2: % inh 500 nM
[2] = biological target: recombinant human PIM1 (Homo sapiens (Human), UniProt P11309); test: PIM-1 kinase activity in cell-free in vitro assay; type: biochemical; conditions: cell-free assay; for inhibition at 0.5 µM: 500 nM compound, read-out: PIM-1: % inh 500 nM
[3] = system: MV-4-11; test: Cell proliferation modulatory activity, MV-4-11; type: cell-based; conditions: Homo sapiens, MV4-11; MV-4-11 cells
[4] = system: K-562; test: Cell proliferation modulatory activity, K-562; type: cell-based; conditions: Homo sapiens, K562; K-562 cells
[5] = system: HCT-116 human colorectal carcinoma cells; test: Cell-proliferation assay using Alamar Blue dye; type: cell-based; conditions: Homo sapiens, HCT-116, second HCT-116 column (c8); read-out: HCT-116 (uM) cell proliferation modulatory activity;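 further: cells exposed to compound for about 4 days, then Alamar Blue added and dye fluorescence read after about 4 h, compared with medium-only control wells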

Chain of recombinant human PIM1 (P11309 whole entry): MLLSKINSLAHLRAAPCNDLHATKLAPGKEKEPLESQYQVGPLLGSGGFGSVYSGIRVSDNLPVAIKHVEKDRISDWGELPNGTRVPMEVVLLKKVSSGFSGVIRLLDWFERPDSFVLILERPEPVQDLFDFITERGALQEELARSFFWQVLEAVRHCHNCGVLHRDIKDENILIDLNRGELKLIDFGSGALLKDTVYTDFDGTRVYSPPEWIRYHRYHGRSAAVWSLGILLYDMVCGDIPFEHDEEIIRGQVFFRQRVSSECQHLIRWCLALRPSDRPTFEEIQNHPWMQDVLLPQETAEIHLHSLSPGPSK
Chain of recombinant human CK2 (P68400 whole entry): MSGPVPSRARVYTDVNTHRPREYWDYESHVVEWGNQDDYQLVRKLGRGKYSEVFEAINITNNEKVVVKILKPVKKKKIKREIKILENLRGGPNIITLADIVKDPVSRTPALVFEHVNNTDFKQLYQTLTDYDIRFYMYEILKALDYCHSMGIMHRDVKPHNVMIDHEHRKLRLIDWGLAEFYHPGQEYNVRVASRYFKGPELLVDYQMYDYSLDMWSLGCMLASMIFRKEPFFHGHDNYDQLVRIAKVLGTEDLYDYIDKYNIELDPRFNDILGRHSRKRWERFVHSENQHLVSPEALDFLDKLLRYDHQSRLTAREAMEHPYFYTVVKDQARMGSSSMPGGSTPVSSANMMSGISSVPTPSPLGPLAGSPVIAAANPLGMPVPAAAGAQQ
Chain of recombinant human CK2 (P67870 whole entry partner): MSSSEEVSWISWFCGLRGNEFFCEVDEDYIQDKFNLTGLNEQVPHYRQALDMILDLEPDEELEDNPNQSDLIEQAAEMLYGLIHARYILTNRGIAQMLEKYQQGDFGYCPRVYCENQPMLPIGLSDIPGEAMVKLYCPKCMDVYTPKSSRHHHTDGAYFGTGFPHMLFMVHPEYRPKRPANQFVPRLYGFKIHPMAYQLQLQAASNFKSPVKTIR

Cc1c(-c2ccccc2)nn(C)c1Nc1nc2cc(C(=O)O)ccc2c2cnccc12 was tested, and the inhibition at 0.5 µM [1] was 76.2%, the inhibition at 0.5 µM [2] was 26.2% and the IC50 [3] was 1.43 µM. The IC50 [4] was greater than 10 µM and the IC50 [5] was 2.34 µM.

For O=C(O)c1ccc2c(c1)nc(Nc1cccc3ncccc13)c1ccncc12, the inhibition at 0.5 µM [1] was 101%, the inhibition at 0.5 µM [2] was 79.1% and the IC50 [2] was 0.281 µM. It also gave an IC50 [3] greater than 10 µM, an IC50 [4] greater than 10 µM and an IC50 [5] greater than 10 µM.

Compound O=C(O)c1ccc2c(c1)nc(Nc1cccc3ccccc13)c1ccncc12 has an inhibition at 0.5 µM [1] of 93.1%, an inhibition at 0.5 µM [2] of 35.7% and an IC50 [3] greater than 10 µM. For the same compound, the IC50 [4] was greater than 10 µM and the IC50 [5] was greater than 10 µM.

CCn1c2ccccc2c2cc(Nc3nc4cc(C(=O)O)ccc4c4cnccc34)ccc21 was tested, and the inhibition at 0.5 µM [1] was 98.1%, the inhibition at 0.5 µM [2] was 32.6% and the IC50 [3] was 3.28 µM. It also gave an IC50 [4] of 0.11 µM and an IC50 [5] of 9.82 µM.

In the case of Cn1cnnc1-c1cccc(Nc2nc3cc(C(=O)O)ccc3c3cnccc23)c1, the inhibition at 0.5 µM [1] is reported as 94.4%, the inhibition at 0.5 µM [2] is reported as 54.9% and the IC50 [2] is reported as 0.344 µM. The IC50 [3] was greater than 10 µM, the IC50 [4] was greater than 10 µM and the IC50 [5] was greater than 10 µM.

Cc1ccc(Nc2nc3cc(C(=O)O)ccc3c3cnccc23)cc1 showed an inhibition at 0.5 µM [1] of 98%, an inhibition at 0.5 µM [2] of 60.6% and an IC50 [2] of 0.478 µM. The IC50 [3] was 9.31 µM, the IC50 [4] was 0.132 µM and the IC50 [5] was greater than 10 µM.

CCN(c1ccccc1)c1nc2cc(C(=O)O)ccc2c2cnccc12 was tested, and the inhibition at 0.5 µM [1] was 91.8%, the inhibition at 0.5 µM [2] was 28% and the IC50 [3] was greater than 10 µM. The IC50 [4] was 0.339 µM and the IC50 [5] was greater than 10 µM.

Work on Nc1ccc(CCNc2nc3cc(C(=O)O)ccc3c3cnccc23)cc1 yielded an inhibition at 0.5 µM [1] of 100%, an inhibition at 0.5 µM [2] of 81.8% and an IC50 [2] of 0.321 µM. It also gave an IC50 [3] greater than 10 µM, an IC50 [4] greater than 10 µM and an IC50 [5] greater than 10 µM.

For O=C(O)c1ccc2c(c1)nc(Nc1cccc(Cl)c1)c1cccnc12, the inhibition at 0.5 µM [1] was 61.1%, the inhibition at 0.5 µM [2] was 59.9% and the IC50 [2] was 0.634 µM. It also gave an IC50 [3] greater than 10 µM, an IC50 [4] greater than 10 µM and an IC50 [5] greater than 10 µM.

Compound O=C(O)c1ccc2c(c1)nc(Nc1ccc(F)c(Cl)c1)c1cccnc12 has an inhibition at 0.5 µM [1] of 19.6%, an inhibition at 0.5 µM [2] of 22.1% and an IC50 [3] greater than 10 µM. The IC50 [4] was greater than 10 µM and the IC50 [5] was greater than 10 µM.

Compound C#Cc1cccc(Nc2nc3cc(C(=O)O)ccc3c3ncccc23)c1 has an inhibition at 0.5 µM [1] of 77.5%, an inhibition at 0.5 µM [2] of 34.9% and an IC50 [3] greater than 10 µM. The IC50 [4] was greater than 10 µM and the IC50 [5] was greater than 10 µM.

For O=C(O)c1ccc2c(c1)nc(Nc1ccccc1)c1cccnc12, the inhibition at 0.5 µM [1] was 25.5%, the inhibition at 0.5 µM [2] was 34.7% and the IC50 [3] was greater than 10 µM. For the same compound, the IC50 [4] was greater than 10 µM and the IC50 [5] was greater than 10 µM.

With O=C(O)c1ccc2c(c1)nc(NCCc1ccccc1)c1cccnc12 the inhibition at 0.5 µM [1] was 5.71%, the inhibition at 0.5 µM [2] was 13.7% and the IC50 [3] was greater than 10 µM. For the same compound, the IC50 [4] was greater than 10 µM and the IC50 [5] was greater than 10 µM.

Compound O=C(O)c1ccc2c(c1)nc(Nc1cccc(F)c1)c1cccnc12 has an inhibition at 0.5 µM [1] of 35%, an inhibition at 0.5 µM [2] of 37.8% and an IC50 [3] greater than 10 µM. For the same compound, the IC50 [4] was greater than 10 µM and the IC50 [5] was greater than 10 µM.

CNc1ncc2c(n1)c(N(C)c1ccccc1)nc1cc(C(=O)O)ccc12 showed an inhibition at 0.5 µM [1] of 94.5%, an inhibition at 0.5 µM [2] of 86.6% and an IC50 [2] of 0.147 µM. The IC50 [3] was greater than 10 µM, the IC50 [4] was greater than 10 µM and the IC50 [5] was greater than 10 µM.

Work on CN(C)c1ncc2c(n1)c(N(C)c1ccccc1)nc1cc(C(=O)O)ccc12 yielded an inhibition at 0.5 µM [1] of 14%, an inhibition at 0.5 µM [2] of 12.2% and an IC50 [3] greater than 10 µM. For the same compound, the IC50 [4] was greater than 10 µM and the IC50 [5] was greater than 10 µM.

Compound CC(C)Nc1ncc2c(n1)c(N(C)c1ccccc1)nc1cc(C(=O)O)ccc12 has an inhibition at 0.5 µM [1] of 91.7%, an inhibition at 0.5 µM [2] of 39.9% and an IC50 [3] greater than 10 µM. For the same compound, the IC50 [4] was greater than 10 µM and the IC50 [5] was greater than 10 µM.

CCOCCNc1ncc2c(n1)c(N(C)c1ccccc1)nc1cc(C(=O)O)ccc12 gave an inhibition at 0.5 µM [1] of 79.4%, an inhibition at 0.5 µM [2] of 54.9% and an IC50 [2] of 0.649 µM. The IC50 [3] was greater than 10 µM, the IC50 [4] was greater than 10 µM and the IC50 [5] was greater than 10 µM.

Compound c1ccc(Nc2nc3ccccc3c3cnccc23)cc1 has an inhibition at 0.5 µM [1] of 0.786%, an inhibition at 0.5 µM [2] of 7% and an IC50 [3] of 7.04 µM. It also gave an IC50 [4] greater than 10 µM and an IC50 [5] greater than 10 µM.

For c1cc2c(NCCN3CCCCC3)nc3cc(-c4nnn[nH]4)ccc3c2s1, the inhibition at 0.5 µM [1] was 37.1%, the inhibition at 0.5 µM [2] was 81.1% and the IC50 [2] was 0.313 µM. The IC50 [3] was greater than 10 µM, the IC50 [4] was greater than 10 µM and the IC50 [5] was greater than 10 µM.

Compound c1cc2c(NCC3CCCN3)nc3cc(-c4nnn[nH]4)ccc3c2s1 (centres unmarked) has an inhibition at 0.5 µM [1] of 86.1%, an inhibition at 0.5 µM [2] of 93.4% and an IC50 [2] of 0.046 µM. For the same compound, the IC50 [3] was greater than 10 µM, the IC50 [4] was greater than 10 µM and the IC50 [5] was greater than 10 µM.

Compound CCN(CC)CCNc1nc2cc(-c3nnn[nH]3)ccc2c2sccc12 has an inhibition at 0.5 µM [1] of 52.6%, an inhibition at 0.5 µM [2] of 87.3% and an IC50 [2] of 0.127 µM. For the same compound, the IC50 [3] was greater than 10 µM, the IC50 [4] was greater than 10 µM and the IC50 [5] was greater than 10 µM.

With CN(C)CCNc1nc2cc(C(=O)NC3CCCCC3)ccc2c2sccc12 the inhibition at 0.5 µM [1] was -10.6%, the inhibition at 0.5 µM [2] was -3.1% and the IC50 [3] was greater than 10 µM. The IC50 [4] was greater than 10 µM and the IC50 [5] was greater than 10 µM.
